Assay results taken from patent US20220153875A1, “ANTIGEN-BINDING MOLECULE CONTAINING ANTIGEN-BINDING DOMAIN OF WHICH BINDING ACTIVITY TO ANTIGEN IS CHANGED DEPENDING ON MTA, AND LIBRARY FOR OBTAINING SAID ANTIGEN-BINDING DOMAIN” (Chugai Seiyaku Kabushiki Kaisha, priority 2019, published 2022).

How the values were obtained:
SK-MES-1 cells = test: Uptake of extracellular MTA by MTAP-non-deficient cells SK-MES-1 (MTA in culture solution, LC-MS); type: in vitro ADME; settings: SK-MES-1, MTA added at 100 nM, 0, 4, 24, 48, 72 hours
Experimental: (§1) Since the MTA concentration in the culture solution of MTAP-deficient cells increases over time, it is inferred that there is an intracellular to extracellular MTA transfer pathway. However, in MTAP-non-deficient cells. MTA concentration in the culture solution was very low (FIG. 2), despite the expected presence of ˜1 uM MTA within the cells (FIG. 1). […] Thereafter, an MTA solution was added to the culture solution so as to make the MTA concentration 100 nM, and the cells were cultured for a predetermined time (MTA: Sigma, Catalog No. D5011-100MG).

HT-1376 cells = test: Uptake of extracellular MTA by MTAP-non-deficient cells HT-1376 (MTA in culture solution, LC-MS); type: in vitro ADME; settings: HT-1376, MTA added at 100 nM, 0, 4, 24, 48, 72 hours
Experimental: as §1

MTA concentration in the culture solution (SK-MES-1 cells): decreased over time
MTA concentration in the culture solution (HT-1376 cells): decreased over time
SMILES: CSC[C@H]1O[C@@H](n2cnc3c(N)ncnc32)[C@H](O)[C@@H]1O (stereo in doubt) [MTA, methylthioadenosine]
